Assay results: the kinase profiling compilation of Christmann-Franck et al. (2016)

Tests used:
Assay in all cases: KINOMEscan competition binding
Conditions in all cases: compound 10.0 µM
ACVR1B (human) = ACVR1B (human) (UniProt P36896)
ADCK4 (human) = ADCK4 (human) (UniProt Q96D53)
CAMK1G (human) = CAMK1G (human) (UniProt Q96NX5)
CDC42BPA (human) = CDC42BPA (human) (UniProt Q5VT25)
CDK16 (human) = CDK16 (human) (UniProt Q00536)
CDK8 (human) = CDK8 (human) (UniProt P49336)
CHUK (human) = CHUK (human) (UniProt O15111)
CIT (human) = CIT (human) (UniProt O14578)
CSNK1A1L (human) = CSNK1A1L (human) (UniProt Q8N752)
Chain of CSNK1A1L (human) (Q8N752 whole entry, looked up): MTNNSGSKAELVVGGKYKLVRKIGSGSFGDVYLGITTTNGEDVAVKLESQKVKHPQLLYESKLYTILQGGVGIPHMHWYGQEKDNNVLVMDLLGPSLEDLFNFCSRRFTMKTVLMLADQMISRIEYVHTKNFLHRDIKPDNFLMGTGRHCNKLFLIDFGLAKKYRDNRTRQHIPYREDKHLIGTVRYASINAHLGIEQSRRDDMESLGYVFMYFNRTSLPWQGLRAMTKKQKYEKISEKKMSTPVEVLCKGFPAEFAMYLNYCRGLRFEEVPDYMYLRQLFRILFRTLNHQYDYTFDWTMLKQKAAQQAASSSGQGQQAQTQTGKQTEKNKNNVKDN

CSNK2A1 (human) = CSNK2A1 (human) (UniProt P68400)
EPHB2 (human) = EPHB2 (human) (UniProt P29323)
FER (human) = FER (human) (UniProt P16591)
FGR (human) = FGR (human) (UniProt P09769)
FRK (human) = FRK (human) (UniProt P42685)
GSK3B (human) = GSK3B (human) (UniProt P49841)
ICK (human) = ICK (human) (UniProt Q9UPZ9)
[1] = system: KIT (human), P10721 [D816H]
MAP2K1 (human) = MAP2K1 (human) (UniProt Q02750)
Chain of MAP2K1 (human) (Q02750 whole entry, looked up): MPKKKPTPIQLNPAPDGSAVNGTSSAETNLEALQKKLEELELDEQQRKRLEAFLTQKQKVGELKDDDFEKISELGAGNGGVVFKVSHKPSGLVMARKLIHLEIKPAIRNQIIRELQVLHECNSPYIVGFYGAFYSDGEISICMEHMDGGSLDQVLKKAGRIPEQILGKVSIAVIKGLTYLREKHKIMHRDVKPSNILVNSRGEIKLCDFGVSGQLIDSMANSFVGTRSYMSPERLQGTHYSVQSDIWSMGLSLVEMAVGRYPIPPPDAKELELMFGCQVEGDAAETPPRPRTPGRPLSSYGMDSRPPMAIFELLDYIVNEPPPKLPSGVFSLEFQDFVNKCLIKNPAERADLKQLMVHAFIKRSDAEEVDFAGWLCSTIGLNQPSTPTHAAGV

MAP3K9 (human) = MAP3K9 (human) (UniProt P80192)
MUSK (human) = MUSK (human) (UniProt O15146)
MYLK2 (human) = MYLK2 (human) (UniProt Q9H1R3)
NEK7 (human) = NEK7 (human) (UniProt Q8TDX7)
NTRK1 (human) = NTRK1 (human) (UniProt P04629)
NTRK3 (human) = NTRK3 (human) (UniProt Q16288)
NUAK1 (human) = NUAK1 (human) (UniProt O60285)
PAK1 (human) = PAK1 (human) (UniProt Q13153)
PHKG1 (human) = PHKG1 (human) (UniProt Q16816)
Chain of PHKG1 (human) (Q16816 whole entry, looked up): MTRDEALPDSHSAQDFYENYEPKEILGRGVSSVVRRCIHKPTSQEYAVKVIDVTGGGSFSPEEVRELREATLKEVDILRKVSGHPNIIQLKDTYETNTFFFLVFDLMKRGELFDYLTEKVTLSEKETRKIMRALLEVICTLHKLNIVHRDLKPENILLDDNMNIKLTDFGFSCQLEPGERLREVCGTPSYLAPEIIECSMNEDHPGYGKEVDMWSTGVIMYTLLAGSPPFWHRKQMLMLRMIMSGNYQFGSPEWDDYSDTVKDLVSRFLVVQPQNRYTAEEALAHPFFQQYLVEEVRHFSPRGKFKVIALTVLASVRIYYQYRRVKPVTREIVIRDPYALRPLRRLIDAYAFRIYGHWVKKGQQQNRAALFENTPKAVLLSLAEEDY

PIK3CA (human) = PIK3CA (human) (UniProt P42336)
Chain of PIK3CA (human) (P42336 whole entry, looked up): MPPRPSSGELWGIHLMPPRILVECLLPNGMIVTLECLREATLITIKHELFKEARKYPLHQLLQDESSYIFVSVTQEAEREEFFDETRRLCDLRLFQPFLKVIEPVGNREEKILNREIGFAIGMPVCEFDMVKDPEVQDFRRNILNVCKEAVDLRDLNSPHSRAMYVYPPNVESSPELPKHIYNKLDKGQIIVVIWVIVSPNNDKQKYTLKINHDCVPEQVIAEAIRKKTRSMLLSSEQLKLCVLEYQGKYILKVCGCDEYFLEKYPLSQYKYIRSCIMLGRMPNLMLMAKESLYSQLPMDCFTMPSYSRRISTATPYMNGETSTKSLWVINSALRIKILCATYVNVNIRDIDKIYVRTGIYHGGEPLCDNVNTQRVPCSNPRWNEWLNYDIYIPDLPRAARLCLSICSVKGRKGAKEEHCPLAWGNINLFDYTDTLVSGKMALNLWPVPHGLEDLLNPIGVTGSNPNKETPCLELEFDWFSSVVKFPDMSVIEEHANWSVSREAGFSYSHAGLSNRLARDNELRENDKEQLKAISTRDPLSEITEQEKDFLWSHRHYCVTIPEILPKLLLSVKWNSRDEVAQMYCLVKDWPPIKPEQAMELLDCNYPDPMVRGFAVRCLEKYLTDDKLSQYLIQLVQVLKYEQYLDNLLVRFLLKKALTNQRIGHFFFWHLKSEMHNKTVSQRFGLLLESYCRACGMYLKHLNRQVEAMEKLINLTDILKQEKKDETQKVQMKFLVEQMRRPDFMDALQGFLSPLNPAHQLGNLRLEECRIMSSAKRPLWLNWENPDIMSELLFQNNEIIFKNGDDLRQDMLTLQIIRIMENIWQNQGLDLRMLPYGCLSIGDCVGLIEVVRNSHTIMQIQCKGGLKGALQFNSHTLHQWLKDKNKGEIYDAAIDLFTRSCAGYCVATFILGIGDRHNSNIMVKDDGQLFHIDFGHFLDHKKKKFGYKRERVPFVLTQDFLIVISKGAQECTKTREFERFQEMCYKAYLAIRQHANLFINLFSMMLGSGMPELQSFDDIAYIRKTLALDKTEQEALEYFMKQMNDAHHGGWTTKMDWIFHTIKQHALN

PLK1 (human) = PLK1 (human) (UniProt P53350)
PLK3 (human) = PLK3 (human) (UniProt Q9H4B4)
ROCK2 (human) = ROCK2 (human) (UniProt O75116)
ROS1 (human) = ROS1 (human) (UniProt P08922)
Chain of ROS1 (human) (P08922 whole entry, looked up): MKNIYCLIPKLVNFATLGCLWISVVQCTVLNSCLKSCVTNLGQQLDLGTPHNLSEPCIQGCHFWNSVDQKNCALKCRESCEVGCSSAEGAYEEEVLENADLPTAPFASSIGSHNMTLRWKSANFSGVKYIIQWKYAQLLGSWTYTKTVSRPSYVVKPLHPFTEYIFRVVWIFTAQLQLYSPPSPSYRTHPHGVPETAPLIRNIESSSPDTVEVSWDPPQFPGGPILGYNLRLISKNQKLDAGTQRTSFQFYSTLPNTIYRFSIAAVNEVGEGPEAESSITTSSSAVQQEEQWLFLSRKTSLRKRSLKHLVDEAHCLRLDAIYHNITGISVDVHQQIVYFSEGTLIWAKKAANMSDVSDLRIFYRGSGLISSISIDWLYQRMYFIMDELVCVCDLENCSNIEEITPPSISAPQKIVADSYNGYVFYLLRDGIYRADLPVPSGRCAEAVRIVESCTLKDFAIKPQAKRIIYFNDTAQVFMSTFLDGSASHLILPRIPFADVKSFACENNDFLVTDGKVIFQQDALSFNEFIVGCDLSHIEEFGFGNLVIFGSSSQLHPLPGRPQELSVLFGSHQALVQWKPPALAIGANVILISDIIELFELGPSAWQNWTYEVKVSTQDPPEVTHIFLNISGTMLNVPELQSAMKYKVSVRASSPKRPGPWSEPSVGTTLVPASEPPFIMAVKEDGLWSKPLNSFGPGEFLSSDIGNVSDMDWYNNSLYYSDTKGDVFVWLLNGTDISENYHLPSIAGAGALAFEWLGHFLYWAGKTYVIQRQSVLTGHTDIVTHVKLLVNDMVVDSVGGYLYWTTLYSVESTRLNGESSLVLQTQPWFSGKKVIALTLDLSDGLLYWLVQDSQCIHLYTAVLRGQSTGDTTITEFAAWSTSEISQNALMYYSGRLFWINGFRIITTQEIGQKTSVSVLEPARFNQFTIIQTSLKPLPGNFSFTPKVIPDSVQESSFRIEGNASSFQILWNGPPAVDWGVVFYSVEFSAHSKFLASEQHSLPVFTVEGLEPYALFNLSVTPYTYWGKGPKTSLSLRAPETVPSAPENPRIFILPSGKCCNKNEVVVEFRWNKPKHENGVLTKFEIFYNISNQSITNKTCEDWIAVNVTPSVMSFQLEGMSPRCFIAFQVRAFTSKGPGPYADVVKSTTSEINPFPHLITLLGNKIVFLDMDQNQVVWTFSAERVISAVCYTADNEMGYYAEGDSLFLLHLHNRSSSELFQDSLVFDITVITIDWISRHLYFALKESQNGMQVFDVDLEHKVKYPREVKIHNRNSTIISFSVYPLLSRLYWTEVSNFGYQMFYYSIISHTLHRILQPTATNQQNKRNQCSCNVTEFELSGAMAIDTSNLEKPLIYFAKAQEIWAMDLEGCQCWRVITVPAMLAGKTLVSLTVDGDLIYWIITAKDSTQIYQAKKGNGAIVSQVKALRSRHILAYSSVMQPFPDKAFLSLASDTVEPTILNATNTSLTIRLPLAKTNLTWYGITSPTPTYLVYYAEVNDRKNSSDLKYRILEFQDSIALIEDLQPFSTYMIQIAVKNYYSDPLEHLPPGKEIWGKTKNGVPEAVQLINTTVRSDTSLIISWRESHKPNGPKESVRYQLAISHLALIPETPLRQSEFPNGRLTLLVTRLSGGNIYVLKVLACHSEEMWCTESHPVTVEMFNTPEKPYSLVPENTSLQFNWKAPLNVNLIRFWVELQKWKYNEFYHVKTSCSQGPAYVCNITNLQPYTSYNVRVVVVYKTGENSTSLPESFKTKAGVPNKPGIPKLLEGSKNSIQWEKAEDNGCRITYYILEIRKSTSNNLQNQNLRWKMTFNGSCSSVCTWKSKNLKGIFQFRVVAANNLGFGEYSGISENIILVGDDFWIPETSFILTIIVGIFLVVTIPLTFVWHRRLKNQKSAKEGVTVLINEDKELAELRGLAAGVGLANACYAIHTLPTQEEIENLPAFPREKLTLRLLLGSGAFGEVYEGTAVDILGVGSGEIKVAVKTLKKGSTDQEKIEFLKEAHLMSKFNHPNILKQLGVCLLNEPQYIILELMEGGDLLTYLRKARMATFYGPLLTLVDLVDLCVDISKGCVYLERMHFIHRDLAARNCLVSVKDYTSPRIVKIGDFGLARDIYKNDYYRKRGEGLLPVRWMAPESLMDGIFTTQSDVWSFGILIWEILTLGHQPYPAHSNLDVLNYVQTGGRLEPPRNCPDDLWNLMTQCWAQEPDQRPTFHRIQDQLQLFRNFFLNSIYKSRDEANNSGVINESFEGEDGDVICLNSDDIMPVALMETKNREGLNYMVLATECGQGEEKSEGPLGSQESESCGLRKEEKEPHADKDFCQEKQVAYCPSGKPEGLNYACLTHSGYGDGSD

RPS6KA2 KD2 (human) = RPS6KA2 KD2 (human) (UniProt Q15349)
STK25 (human) = STK25 (human) (UniProt O00506)
STK32B (human) = STK32B (human) (UniProt Q9NY57)
STK33 (human) = STK33 (human) (UniProt Q9BYT3)
STK4 (human) = STK4 (human) (UniProt Q13043)
TBK1 (human) = TBK1 (human) (UniProt Q9UHD2)
TSSK1B (human) = TSSK1B (human) (UniProt Q9BXA7)
[2] = biological target: TYK2 JH2 pseudokinase (human) (UniProt P29597)

Chain of ADCK4 (human) (Q96D53 whole entry, looked up): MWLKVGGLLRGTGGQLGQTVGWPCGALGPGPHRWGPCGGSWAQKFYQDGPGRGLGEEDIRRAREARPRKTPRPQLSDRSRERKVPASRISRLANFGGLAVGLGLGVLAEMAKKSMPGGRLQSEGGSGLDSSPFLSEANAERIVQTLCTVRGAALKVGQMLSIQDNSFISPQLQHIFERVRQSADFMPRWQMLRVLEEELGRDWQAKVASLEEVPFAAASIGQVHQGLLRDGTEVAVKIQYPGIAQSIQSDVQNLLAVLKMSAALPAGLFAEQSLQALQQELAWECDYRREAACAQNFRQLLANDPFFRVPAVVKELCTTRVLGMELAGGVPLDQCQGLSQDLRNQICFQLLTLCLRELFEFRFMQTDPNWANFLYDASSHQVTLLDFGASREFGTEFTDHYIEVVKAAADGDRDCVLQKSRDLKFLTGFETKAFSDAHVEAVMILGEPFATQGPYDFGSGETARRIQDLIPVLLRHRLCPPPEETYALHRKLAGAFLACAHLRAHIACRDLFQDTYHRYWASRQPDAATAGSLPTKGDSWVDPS

SMILES: C=CC(=O)Nc1ccc(C(=O)c2sc(Nc3ccc(N4CCN(C)CC4)cc3OC)nc2N)cc1
- kinase still bound, per cent of control (ACVR1B (human)): 100%
- kinase still bound, per cent of control (ADCK4 (human)): 45%
- kinase still bound, per cent of control (CAMK1G (human)): 8.2%
- kinase still bound, per cent of control (CDC42BPA (human)): 100%
- kinase still bound, per cent of control (CDK16 (human)): 67%
- kinase still bound, per cent of control (CDK8 (human)): 100%
- kinase still bound, per cent of control (CHUK (human)): 59%
- kinase still bound, per cent of control (CIT (human)): 13%
- kinase still bound, per cent of control (CSNK1A1L (human)): 78%
- kinase still bound, per cent of control (CSNK2A1 (human)): 14%
- kinase still bound, per cent of control (EPHB2 (human)): 100%
- kinase still bound, per cent of control (FER (human)): 82%
- kinase still bound, per cent of control (FGR (human)): 91%
- kinase still bound, per cent of control (FRK (human)): 48%
- kinase still bound, per cent of control (GSK3B (human)): 100%
- kinase still bound, per cent of control (ICK (human)): 32%
- kinase still bound, per cent of control [1]: 70%
- kinase still bound, per cent of control (MAP2K1 (human)): 100%
- kinase still bound, per cent of control (MAP3K9 (human)): 93%
- kinase still bound, per cent of control (MUSK (human)): 100%
- kinase still bound, per cent of control (MYLK2 (human)): 66%
- kinase still bound, per cent of control (NEK7 (human)): 100%
- kinase still bound, per cent of control (NTRK1 (human)): 78%
- kinase still bound, per cent of control (NTRK3 (human)): 93%
- kinase still bound, per cent of control (NUAK1 (human)): 100%
- kinase still bound, per cent of control (PAK1 (human)): 73%
- kinase still bound, per cent of control (PHKG1 (human)): 7.4%
- kinase still bound, per cent of control (PIK3CA (human)): 95%
- kinase still bound, per cent of control (PLK1 (human)): 45%
- kinase still bound, per cent of control (PLK3 (human)): 7.8%
- kinase still bound, per cent of control (ROCK2 (human)): 24%
- kinase still bound, per cent of control (ROS1 (human)): 38%
- kinase still bound, per cent of control (RPS6KA2 KD2 (human)): 0.25%
- kinase still bound, per cent of control (STK25 (human)): 100%
- kinase still bound, per cent of control (STK32B (human)): 71%
- kinase still bound, per cent of control (STK33 (human)): 39%
- kinase still bound, per cent of control (STK4 (human)): 100%
- kinase still bound, per cent of control (TBK1 (human)): 100%
- kinase still bound, per cent of control (TSSK1B (human)): 44%
- kinase still bound, per cent of control [2]: 66%

SMILES: CNC(=O)Nc1ccc(-c2nc(N3CC4CCC(C3)O4)c3cnn(C4CCC5(CC4)OCCO5)c3n2)cc1
- kinase still bound, per cent of control (ACVR1B (human)): 100%
- kinase still bound, per cent of control (ADCK4 (human)): 100%
- kinase still bound, per cent of control (CAMK1G (human)): 100%
- kinase still bound, per cent of control (CDC42BPA (human)): 100%
- kinase still bound, per cent of control (CDK16 (human)): 100%
- kinase still bound, per cent of control (CDK8 (human)): 100%
- kinase still bound, per cent of control (CHUK (human)): 100%
- kinase still bound, per cent of control (CIT (human)): 100%
- kinase still bound, per cent of control (CSNK1A1L (human)): 100%
- kinase still bound, per cent of control (CSNK2A1 (human)): 80%
- kinase still bound, per cent of control (EPHB2 (human)): 78%
- kinase still bound, per cent of control (FER (human)): 100%
- kinase still bound, per cent of control (FGR (human)): 100%
- kinase still bound, per cent of control (FRK (human)): 68%
- kinase still bound, per cent of control (GSK3B (human)): 69%
- kinase still bound, per cent of control (ICK (human)): 87%
- kinase still bound, per cent of control [1]: 86%
- kinase still bound, per cent of control (MAP2K1 (human)): 100%
- kinase still bound, per cent of control (MAP3K9 (human)): 97%
- kinase still bound, per cent of control (MUSK (human)): 92%
- kinase still bound, per cent of control (MYLK2 (human)): 100%
- kinase still bound, per cent of control (NEK7 (human)): 100%
- kinase still bound, per cent of control (NTRK1 (human)): 100%
- kinase still bound, per cent of control (NTRK3 (human)): 93%
- kinase still bound, per cent of control (NUAK1 (human)): 82%
- kinase still bound, per cent of control (PAK1 (human)): 100%
- kinase still bound, per cent of control (PHKG1 (human)): 100%
- kinase still bound, per cent of control (PIK3CA (human)): 16%
- kinase still bound, per cent of control (PLK1 (human)): 77%
- kinase still bound, per cent of control (PLK3 (human)): 100%
- kinase still bound, per cent of control (ROCK2 (human)): 100%
- kinase still bound, per cent of control (ROS1 (human)): 81%
- kinase still bound, per cent of control (RPS6KA2 KD2 (human)): 93%
- kinase still bound, per cent of control (STK25 (human)): 91%
- kinase still bound, per cent of control (STK32B (human)): 86%
- kinase still bound, per cent of control (STK33 (human)): 82%
- kinase still bound, per cent of control (STK4 (human)): 100%
- kinase still bound, per cent of control (TBK1 (human)): 82%
- kinase still bound, per cent of control (TSSK1B (human)): 100%
- kinase still bound, per cent of control [2]: 100%

SMILES: O=c1[nH]c2ccccc2n1C1CCN(Cc2ccc(-c3nc4cc5[nH]cnc5cc4nc3-c3ccccc3)cc2)CC1
- kinase still bound, per cent of control (ACVR1B (human)): 100%
- kinase still bound, per cent of control (ADCK4 (human)): 100%
- kinase still bound, per cent of control (CAMK1G (human)): 90%
- kinase still bound, per cent of control (CDC42BPA (human)): 85%
- kinase still bound, per cent of control (CDK16 (human)): 97%
- kinase still bound, per cent of control (CDK8 (human)): 100%
- kinase still bound, per cent of control (CHUK (human)): 75%
- kinase still bound, per cent of control (CIT (human)): 47%
- kinase still bound, per cent of control (CSNK1A1L (human)): 80%
- kinase still bound, per cent of control (CSNK2A1 (human)): 96%
- kinase still bound, per cent of control (EPHB2 (human)): 72%
- kinase still bound, per cent of control (FER (human)): 83%
- kinase still bound, per cent of control (FGR (human)): 100%
- kinase still bound, per cent of control (FRK (human)): 100%
- kinase still bound, per cent of control (GSK3B (human)): 89%
- kinase still bound, per cent of control (ICK (human)): 91%
- kinase still bound, per cent of control [1]: 100%
- kinase still bound, per cent of control (MAP2K1 (human)): 83%
- kinase still bound, per cent of control (MAP3K9 (human)): 96%
- kinase still bound, per cent of control (MUSK (human)): 100%
- kinase still bound, per cent of control (MYLK2 (human)): 86%
- kinase still bound, per cent of control (NEK7 (human)): 82%
- kinase still bound, per cent of control (NTRK1 (human)): 100%
- kinase still bound, per cent of control (NTRK3 (human)): 98%
- kinase still bound, per cent of control (NUAK1 (human)): 100%
- kinase still bound, per cent of control (PAK1 (human)): 90%
- kinase still bound, per cent of control (PHKG1 (human)): 100%
- kinase still bound, per cent of control (PIK3CA (human)): 77%
- kinase still bound, per cent of control (PLK1 (human)): 93%
- kinase still bound, per cent of control (PLK3 (human)): 94%
- kinase still bound, per cent of control (ROCK2 (human)): 73%
- kinase still bound, per cent of control (ROS1 (human)): 50%
- kinase still bound, per cent of control (RPS6KA2 KD2 (human)): 100%
- kinase still bound, per cent of control (STK25 (human)): 97%
- kinase still bound, per cent of control (STK32B (human)): 88%
- kinase still bound, per cent of control (STK33 (human)): 100%
- kinase still bound, per cent of control (STK4 (human)): 77%
- kinase still bound, per cent of control (TBK1 (human)): 70%
- kinase still bound, per cent of control (TSSK1B (human)): 82%
- kinase still bound, per cent of control [2]: 66%
